Results as given in ChEMBL document CHEMBL1201862, “PubChem BioAssay data set” (2004).
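Test compounds were applied to cells in 96-well plates for 48 hours at 5 doses. At the GI50, growth is halved.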 Activity calls are given as the source filed them. No stated cut-off is given here; in the data, active = GI50 up to about 1.1 µM and inactive = higher.

Experiments:
Assay in all cases: NCI tumour cell line growth inhibition, 48 h
NCI-H460 = test system: NCI-H460
T47D = test system: T47D
HCT-15 = test system: HCT-15
EKVX = test system: EKVX
DU-145 = test system: DU-145
SR = test system: SR
SK-OV-3 = test system: SK-OV-3
MCF7 = test system: MCF7
OVCAR-3 = test system: OVCAR-3
MDA-MB-231 = test system: MDA-MB-231
SF-295 = test system: SF-295
CAKI-1 = test system: CAKI-1
CCRF-CEM = test system: CCRF-CEM
NCI-H23 = test system: NCI-H23
786-0 = test system: 786-0
OVCAR-5 = test system: OVCAR-5
SNB-19 = test system: SNB-19
OVCAR-8 = test system: OVCAR-8
TK-10 = test system: TK-10
HCT-116 = test system: HCT-116
RPMI-8226 = test system: RPMI-8226
HOP-92 = test system: HOP-92
K562 = test system: K562
SW-620 = test system: SW-620
UACC-62 = test system: UACC-62
SK-MEL-28 = test system: SK-MEL-28
UACC-257 = test system: UACC-257
OVCAR-4 = test system: OVCAR-4
PC-3 = test system: PC-3
SN12C = test system: SN12C
SF-268 = test system: SF-268
M14 = test system: M14
ACHN = test system: ACHN
Malme-3M = test system: Malme-3M
SNB-75 = test system: SNB-75
LOX IMVI = test system: LOX IMVI
NCI-H522 = test system: NCI-H522
HCC 2998 = test system: HCC 2998
SK-MEL-2 = test system: SK-MEL-2
HOP-62 = test system: HOP-62
UO-31 = test system: UO-31
HL-60 = test system: HL-60
MDA-MB-435 = test system: MDA-MB-435
IGROV-1 = test system: IGROV-1
U-251 = test system: U-251
COLO 205 = test system: COLO 205
SF-539 = test system: SF-539
MOLT-4 = test system: MOLT-4
A498 = test system: A498
HT-29 = test system: HT-29
NCI/ADR-RES = test system: NCI/ADR-RES
MDA-N = test system: MDA-N
Hs-578T = test system: Hs-578T
A549 = test system: A549
SK-MEL-5 = test system: SK-MEL-5
KM12 = test system: KM12

## CCCCN(CCCC)CC(O)c1cc(-c2ccc(C(F)(F)F)cc2)nc(-c2ccc(C(F)(F)F)cc2)c1 (stereo not given)
NCI-H460
  GI50: > 100 µM (inactive)
T47D
  GI50: 34.4 µM (inactive)
HCT-15
  GI50: 26.4 µM
EKVX
  GI50: 39.4 µM (inactive)
DU-145
  GI50: > 100 µM (inactive)
SR
  GI50: > 100 µM (inactive)
SK-OV-3
  GI50: > 100 µM (inactive)
MCF7
  GI50: > 10 µM (inactive)
OVCAR-3
  GI50: 94.8 µM (inactive)
MDA-MB-231
  GI50: 15.7 µM (inactive)
SF-295
  GI50: 26.7 µM (inactive)
CAKI-1
  GI50: > 100 µM (inactive)
CCRF-CEM
  GI50: 50.9 µM (inactive)
NCI-H23
  GI50: > 100 µM (inactive)
786-0
  GI50: 61.1 µM (inactive)
OVCAR-5
  GI50: > 100 µM (inactive)
SNB-19
  GI50: > 100 µM (inactive)
OVCAR-8
  GI50: > 100 µM (inactive)
TK-10
  GI50: > 100 µM (inactive)
HCT-116
  GI50: 61.8 µM (inactive)
RPMI-8226
  GI50: 39.9 µM (inactive)
HOP-92
  GI50: 61.5 µM (inactive)
K562
  GI50: 76.2 µM (inactive)
SW-620
  GI50: > 100 µM (inactive)
UACC-62
  GI50: > 100 µM (inactive)
SK-MEL-28
  GI50: > 100 µM (inactive)
UACC-257
  GI50: 49.3 µM (inactive)
OVCAR-4
  GI50: > 100 µM (inactive)
PC-3
  GI50: 55 µM (inactive)
SN12C
  GI50: 26.1 µM (inactive)
SF-268
  GI50: > 100 µM (inactive)
M14
  GI50: 91.4 µM (inactive)
ACHN
  GI50: > 100 µM (inactive)
Malme-3M
  GI50: 44 µM (inactive)
SNB-75
  GI50: 13.8 µM (inactive)
LOX IMVI
  GI50: 35 µM (inactive)
NCI-H522
  GI50: 75.3 µM (inactive)
HCC 2998
  GI50: 22.6 µM (inactive)
SK-MEL-2
  GI50: > 100 µM (inactive)
HOP-62
  GI50: 70.8 µM (inactive)
UO-31
  GI50: 95.7 µM (inactive)
HL-60
  GI50: 32 µM (inactive)
MDA-MB-435
  GI50: 59.6 µM (inactive)
IGROV-1
  GI50: > 100 µM (inactive)
U-251
  GI50: > 100 µM (inactive)
COLO 205
  GI50: 79.8 µM (inactive)
SF-539
  GI50: > 100 µM (inactive)
MOLT-4
  GI50: > 100 µM (inactive)
A498
  GI50: > 100 µM (inactive)
HT-29
  GI50: > 100 µM (inactive)
NCI/ADR-RES
  GI50: > 100 µM (inactive)

## CN1C(=O)c2ccccc2NC(=O)C12O[C@@H]2c1cccc(O)c1 (stereo not given in full)
MDA-N
  GI50: > 100 µM (inactive)
NCI-H460
  GI50: > 100 µM (inactive)
T47D
  GI50: > 100 µM (inactive)
HCT-15
  GI50: > 100 µM
EKVX
  GI50: > 100 µM (inactive)
DU-145
  GI50: > 100 µM (inactive)
SR
  GI50: > 100 µM (inactive)
MCF7
  GI50: > 100 µM (inactive)
OVCAR-3
  GI50: > 100 µM (inactive)
MDA-MB-231
  GI50: > 100 µM (inactive)
SF-295
  GI50: > 100 µM (inactive)
CAKI-1
  GI50: > 100 µM (inactive)
Hs-578T
  GI50: > 100 µM (inactive)
CCRF-CEM
  GI50: > 100 µM (inactive)
NCI-H23
  GI50: > 100 µM (inactive)
786-0
  GI50: > 100 µM (inactive)
OVCAR-5
  GI50: 95.9 µM (inactive)
SNB-19
  GI50: > 100 µM (inactive)
OVCAR-8
  GI50: > 100 µM (inactive)
TK-10
  GI50: > 100 µM (inactive)
HCT-116
  GI50: > 100 µM (inactive)
RPMI-8226
  GI50: > 100 µM (inactive)
HOP-92
  GI50: > 100 µM (inactive)
SW-620
  GI50: > 100 µM (inactive)
UACC-62
  GI50: > 100 µM (inactive)
SK-MEL-28
  GI50: > 100 µM (inactive)
UACC-257
  GI50: > 100 µM (inactive)
OVCAR-4
  GI50: > 100 µM (inactive)
PC-3
  GI50: > 100 µM (inactive)
SN12C
  GI50: > 100 µM (inactive)
SF-268
  GI50: > 100 µM (inactive)
M14
  GI50: > 100 µM (inactive)
ACHN
  GI50: > 100 µM (inactive)
Malme-3M
  GI50: > 100 µM (inactive)
A549
  GI50: > 100 µM (inactive)
SNB-75
  GI50: > 100 µM (inactive)
LOX IMVI
  GI50: > 100 µM (inactive)
SK-MEL-5
  GI50: > 100 µM (inactive)
NCI-H522
  GI50: > 100 µM (inactive)
HCC 2998
  GI50: > 100 µM (inactive)
SK-MEL-2
  GI50: > 100 µM (inactive)
HOP-62
  GI50: > 100 µM (inactive)
UO-31
  GI50: > 100 µM (inactive)
HL-60
  GI50: > 100 µM (inactive)
MDA-MB-435
  GI50: > 100 µM (inactive)
IGROV-1
  GI50: > 100 µM (inactive)
U-251
  GI50: > 100 µM (inactive)
COLO 205
  GI50: > 100 µM (inactive)
SF-539
  GI50: > 100 µM (inactive)
KM12
  GI50: > 100 µM (inactive)
MOLT-4
  GI50: > 100 µM (inactive)
A498
  GI50: > 100 µM (inactive)
HT-29
  GI50: > 100 µM (inactive)
NCI/ADR-RES
  GI50: > 100 µM (inactive)
